According to paper PMC8811960, “A Novel 2-Carbon-Linked Dimeric Artemisinin With Potent Antileukemic Activity and Favorable Pharmacology” (Frontiers in Oncology, 2022):
Counter-ions that a name gives are not always drawn.

Columns and labels:
[1] = tested on: MOLM14, MV4;11, and HL60 human AML cells; set-up: method as in PMID 33560385; conditions: ART631 200 nM, VEN 50 nM, SOR 5 µM; MOLM14, MV4;11, HL60; cited from earlier work
MOLM14 cells = test: Total cellular ROS (CM-H2DCFDA flow cytometry); assay type: cell-based, human; conditions: MOLM14, DFO 11 uM, 60 min pre-treatment
Protocol: […] Cells were then treated with ART631 (200 nM) or DMSO control for 18h, with subsequent analysis by flow cytometry. Western blotting and quantitative reverse transcription PCR (qRT-PCR) to assess for molecular markers of ROS-mediated apoptosis were performed as previously described ([20]).
Figure 4 ART631 elevated ROS and CHOP levels and reduced MCL1 expression in MOLM14 AML cells. […] They were then analyzed by flow cytometry. Graph represents %CM-H2DCFDA fluorescence compared to vehicle (DMSO) control treated cells. Error bars represent SD from 3 independent experiments. (B) MOLM14 AML cells were treated for 18h with vehicle, AS (10 uM), ART838 (200 nM), ART631 (200 nM), cytarabine (AraC; 150 nM), or SOR (5 uM). Protein was isolated and western blotted for MCL1, BCL2, CHOP, and β-actin. (C) MOLM14 cells were treated as in (B) for 18h, total RNA isolated, cDNA synthesized, and SYBR Green qRT-PCR performed in triplicates. Ct values were normalized to housekeeping gene GAPDH and fold change shown relative to vehicle (DMSO) control. Error bars represent SD from 3 independent experiments done in triplicate.

HEL = test: alamarBlue growth inhibition, HEL; assay type: cell-based; conditions: Homo sapiens, 48h, mean of 2 independent assays ± SD
Protocol: (§1) Cytotoxicity was assessed using alamarBlue assays (Life Technologies, Grand Island, NY) following manufacturer’s guidelines. Cell death was verified by Annexin V/7-aminoactinomycin D (7AAD) staining (BioLegend, San Diego, CA) per manufacturer’s guidelines.

MOLM14 = test: alamarBlue growth inhibition, MOLM14; assay type: cell-based; conditions: Homo sapiens, MOLM-14, 48 h
Protocol: as §1
In this experiment, provided to show the entire concentration:response range, MOLM14 AML cells were cultured with a range of concentrations of artesunate (AS), ART838, ART631, and ART576 for 48h. Graph indicates growth inhibition relative to vehicle (DMSO)-treated controls by alamarBlue absorbance assays. Data points and error bars represent mean and SD of 3 independent experiments done in triplicate.

10 human AML cell lines = test: alamarBlue growth inhibition, panel of 10 human AML cell lines; assay type: cell-based
Protocol: as §1
Cell lines with adverse risk cytogenetic and molecular features, e.g. MLL rearrangements (ML2, MOLM14, MV4;11, THP1), FLT3-ITD (MOLM14, MV4;11), TP53 mutations (KG1a, ML2, THP1, U937), and NRAS/KRAS mutations (ML2, THP1), were among those exquisitely sensitive to ART631, with IC50s < 50 nM. The K562 cell line was the only exception, as it was resistant to all 3 of these ARTs. Based on this in vitro activity data combined with the drug stability data described below, ART631 was prioritized over ART576 for further in vitro and in vivo antileukemic efficacy experiments here ( Table 2 ).

KG1a = test: alamarBlue growth inhibition, KG1a; assay type: cell-based; conditions: Homo sapiens, KG-1a, 48h, mean of 2 independent assays ± SD
Protocol: as §1

THP1 = test: alamarBlue growth inhibition, THP1; assay type: cell-based; conditions: Homo sapiens, THP-1, THP1, 48h, mean of 2 independent assays ± SD
Protocol: as §1

AML45 PDX = tested on: AML45 PDX; set-up: method as in PMID 33560385; conditions: monotherapy; cited from earlier work
K562 = test: alamarBlue growth inhibition, K562; assay type: cell-based; conditions: Homo sapiens, K562, 48h, mean of 2 independent assays ± SD
Protocol: as §1

U937 = test: alamarBlue growth inhibition, U937; assay type: cell-based; conditions: Homo sapiens, U-937, U937, 48h, mean of 2 independent assays ± SD
Protocol: as §1

HL60 = test: alamarBlue growth inhibition, HL60; assay type: cell-based; conditions: Homo sapiens, HL-60, HL60, 48h, mean of 2 independent assays ± SD
Protocol: as §1

[2] = x5; cited from earlier work
ML2 = test: alamarBlue growth inhibition, ML2; assay type: cell-based; conditions: Homo sapiens, ML-2, ML2, 48h, mean of 2 independent assays ± SD
Protocol: as §1

23 leukemia cell lines = conditions: against 23 leukemia cell lines; cited from earlier work
DDIT3 = test: qRT-PCR for DDIT3 mRNA; assay type: cell-based, human; conditions: MOLM14, 18h, ART631 200 nM, ART838 200 nM, AS 10 uM, similar results in MV4;11 and ML2
Protocol: Cells were pre-treated with […] ROS detection reagent 5-(and 6-)-chloromethyl-2’,7’-dichlorodihydrofluorescein diacetate (CM-H2DCFDA, Life Technologies) for 30 min, followed by the iron chelator deferoxamine mesylate (DFO; 11 mM) for 60 min. Cells were then treated with ART631 (200 nM) or DMSO control for 18h, with subsequent analysis by flow cytometry. Western blotting and quantitative reverse transcription PCR (qRT-PCR) to assess for molecular markers of ROS-mediated apoptosis were performed as previously described ([20]).
Figure 4 ART631 elevated ROS and CHOP levels and reduced MCL1 expression in MOLM14 AML cells. (A) MOLM14 AML cells were pre-treated with ROS detection reagent CM-H2DCFDA ([…]) for 30 min, pre-treated with deferoxamine mesylate (DFO; 11 mM) for 60 min, and then treated with ART631 (200 nM) or DMSO control for 18h. They were then analyzed by flow cytometry. Graph represents %CM-H2DCFDA fluorescence compared to vehicle (DMSO) control treated cells. Error bars represent SD from 3 independent experiments. (B) MOLM14 AML cells were treated for 18h with vehicle, AS (10 uM), ART838 (200 nM), ART631 (200 nM), cytarabine (AraC; 150 nM), or SOR (5 uM). Protein was isolated and western blotted for MCL1, BCL2, CHOP, and β-actin. (C) MOLM14 cells were treated as in (B) for 18h, total RNA isolated, cDNA synthesized, and SYBR Green qRT-PCR performed in triplicates. Ct values were normalized to housekeeping gene GAPDH and fold change shown relative to vehicle (DMSO) control. Error bars represent SD from 3 independent experiments done in triplicate.

MV4;11 = test: alamarBlue growth inhibition, MV4;11; assay type: cell-based; conditions: Homo sapiens, MV4;11, 48h, mean of 2 independent assays ± SD
Protocol: as §1

TF1 = test: alamarBlue growth inhibition, TF1; assay type: cell-based; conditions: Homo sapiens, TF-1, TF1, 48h, mean of 2 independent assays ± SD
Protocol: as §1

[3] = as previously reported; cited from earlier work

With `CC1(C)CCC(CN2CCN(c3ccc(C(=O)NS(=O)(=O)c4ccc(NCC5CCOCC5)c([N+](=O)[O-])c4)c(Oc4cnc5[nH]ccc5c4)c3)CC2)=C(c2ccc(Cl)cc2)C1` [VEN, venetoclax] as the molecule, how does the “cell death as single agents” value [1] read?
Its value is “less than 15%”.

For `CNC(=O)c1cc(Oc2ccc(NC(=O)Nc3ccc(Cl)c(C(F)(F)F)c3)cc2)ccn1` [SOR, sorafenib], which “cell death as single agents” value [1] is on record?
The value was “less than 15%”.

For `CC(=O)N(O)CCCCCNC(=O)CCC(=O)N(O)CCCCCNC(=O)CCC(=O)N(O)CCCCCN` [deferoxamine mesylate, reference compound], which “effect of pre-treatment on ROS generation by ART631” value (MOLM14 cells) is on record?
Its value is “diminished”.

For `C[C@@H]1CCC2[C@@H](C)[C@@H](CC(COP(=O)(Oc3ccccc3)Oc3ccccc3)C[C@H]3O[C@@H]4O[C@@]5(C)CCC6[C@H](C)CCC([C@H]3C)[C@]64OO5)O[C@@H]3O[C@@]4(C)CCC1[C@@]23OO4` (some centres unmarked) [ART838, reference compound], which IC50 (HEL) is on record?
The IC50 was 72 ± 6 nM.

What about the IC50 (MOLM14) of the same molecule?
The IC50 was 28 ± 3 nM.

And the IC50 (10 human AML cell lines; Homo sapiens, read-out: IC50 range)?
Its IC50 is 22 to 112 nM.

And the “number of human AML cell lines whose growth was inhibited” value (10 human AML cell lines; of 10 human AML cell lines tested)?
Its value is 9.

What about the IC50 (KG1a) of the same molecule?
Its IC50 is 112 ± 7 nM.

And the IC50 (THP1)?
The IC50 was 45 ± 3 nM.

And the survival versus vehicle (AML45 PDX)?
Its survival versus vehicle is “did not reach statistical significance”.

What about the IC50 (K562) of the same molecule?
Its IC50 is > 1000 nM.

And the IC50 (U937)?
Its IC50 is 22 ± 3 nM.

What about the IC50 (HL60) of the same molecule?
Its IC50 is 45 ± 3 nM.

What about the “multiple day MTD regimen” value [2] of the same molecule?
The value was 50 mg/kg/day.

What about the IC50 (ML2) of the same molecule?
The IC50 was 40 ± 5 nM.

And the “fold more potent than artesunate (AS)” value (23 leukemia cell lines)?
The value was 88 fold.

And the “DDIT3 mRNA” value (DDIT3)?
Its value is “increased”.

And the IC50 (MV4;11)?
The IC50 was 28 ± 1 nM.

What about the IC50 (TF1) of the same molecule?
Its IC50 is 36 ± 3 nM.

What about the “degradation (stability)” value [3] of the same molecule?
Its value is ≤ 20%.
